Results on 23 molecules are retold here after patent publication US8937092B2, “Aryl or N-heteroaryl substituted methanesulfonamide derivatives as vanilloid receptor ligands” (Gruenenthal GmbH, priority 2011, dated 2015).

The target in one test is vanilloid receptor 1 (VR1/TRPV1 receptor) (Homo sapiens, UniProt Q8NER1). Put plainly: Functional FLIPR Ca2+ influx assay on vanilloid receptor 1, capsaicin (Cap) stimulus. In kind it is cell-based. As to conditions: Ki from IC50 by Cheng-Prusoff, read-out: (f) Ki (human being) [nM], Cap. The method, then:
Furthermore, preference may be given to compounds according to the invention that cause a 50 percent displacement of capsaicin, which is present at a concentration of 100 nM, in a FLIPR assay with CHO K1 cells which were transfected with the human VR1 gene at a concentration of less than 2,000 nM, preferably less than 1,000 nM, particularly preferably less than 300 nM, most particularly preferably less than 100 nM, even more preferably less than 75 nM, additionally preferably less than 50 nM, most preferably less than 10 nM.
In the process, the Ca^2+ influx is quantified in the FLIPR assay with the aid of a Ca^2+-sensitive dye (type Fluo-4, Molecular Probes Europe BV, Leiden, the Netherlands) in a fluorescent imaging plate reader (FLIPR, Molecular Devices, Sunnyvale, USA), as described hereinafter.
Pharmacological Methods I. Functional Testing Carried Out on the Vanilloid Receptor 1 (VRI/TRPV1 Receptor) […]
The number of cells in the suspension is set to 3×10^5 per mL and 150 μL of this suspension are in each case introduced into a recess in the cell culture plates coated as described hereinbefore. In the incubator the plates are left for two to three days at 37° C., 5% by volume of CO2 and 95% relative humidity. Subsequently, the cells are loaded with 2 μM of Fluo-4 and 0.01% by volume of Pluronic F127 (Molecular Probes Europe BV, Leiden, the Netherlands) in HBSS buffer (Hank's buffered saline solution, Gibco Invitrogen GmbH, Karlsruhe, Germany) for 30 min at 37° C., washed 3 times with HBSS buffer and after further incubation for 15 minutes at room temperature used for Ca^2+ measurement in a FLIPR assay. The Ca^2+-dependent fluorescence is in this case measured before and after the addition of substances (λex=488 nm, λem=540 nm). Quantification is carried out by measuring the highest fluorescence intensity (FC, fluorescence counts) over time.
The FLIPR protocol consists of 2 substance additions. First the compounds to be tested (10 μM) are pipetted onto the cells and the Ca^2+ influx is compared with the control (capsaicin 10 μM). This provides the result in % activation based on the Ca^2+ signal after the addition of 10 μM of capsaicin (CP). After 5 minutes' incubation, 100 nM of capsaicin are applied and the Ca^2+ influx is also determined.
Desensitising agonists and antagonists lead to suppression of the Ca^2+ influx. The % inhibition is calculated compared to the maximum achievable inhibition with 10 μM of capsazepine.
Triple analyses (n=3) are carried out and repeated in at least 3 independent experiments (N=4).
Starting from the percentage displacement caused by different concentrations of the compounds to be tested of general formula I, IC50 inhibitory concentrations which cause a 50-percent displacement of capsaicin were calculated. K, values for the test substances were obtained by conversion by means of the Cheng-Prusoff equation (Cheng, Prusoff; Biochem. Pharmacol. 22, 3099-3108, 1973).
The affinity of the compounds according to the invention for the vanilloid receptor 1 (VR1/TRPV1 receptor) was determined as described herein before (pharmacological method I).
The value after the “@” symbol indicates the concentration at which the inhibition (as a percentage) was respectively determined.
`CC(C(=O)NCc1ccc(C(F)(F)F)nc1-c1ccc(F)c(F)c1)c1ccc(CNS(C)(=O)=O)c(F)c1` (centres unmarked) [Example 10, N-((2-(3,4-difluorophenyl)-6-(trifluoromethyl)pyridin-3-yl)methyl)-2-(3-fluoro-4-(methylsulfonamidomethyl)phenyl)propanamide]: the Ki worked out at 17 nM. Turning to `Cc1cccc(-c2cc(C(C)(C)C)ccc2CNC(=O)C(C)c2ccc(CNS(C)(=O)=O)c(F)c2)c1` (centres unmarked) [Example 21, N-((5-tert-butyl-3′-methylbiphenyl-2-yl)methyl)-2-(3-fluoro-4-(methylsulfonamidomethyl)phenyl)propanamide], the Ki amounted to 37 nM. As for `CC(C(=O)NCc1ccc(C(F)(F)F)nc1-c1ccc(C#N)cc1)c1ccc(CNS(C)(=O)=O)c(F)c1` (centres unmarked) [Example 58, N-((2-(4-cyanophenyl)-6-(trifluoromethyl)pyridin-3-yl)methyl)-2-(3-fluoro-4-(methylsulfonamidomethyl)phenyl)propanamide], the Ki was determined as 45 nM. For `Cc1cccc(-c2nc(C(F)(F)F)ccc2CNC(=O)Nc2ccc(CNS(C)(=O)=O)c(F)c2)c1` [Example 27, N-(2-fluoro-4-(3-((2-m-tolyl-6-(trifluoromethyl)pyridin-3-yl)methyl)ureido)benzyl)methanesulfonamide], the Ki was 10 nM. As for `COc1cc(C)cc(-c2nc(C(F)(F)F)ccc2CNC(=O)C(C)c2ccc(CNS(C)(=O)=O)c(F)c2)c1` (centres unmarked) [Example 44, 2-(3-fluoro-4-(methylsulfonamidomethyl)phenyl)-N-((2-(3-methoxy-5-methylphenyl)-6-(trifluoromethyl)pyridin-3-yl)methyl)propanamide], the Ki came to 106 nM. Turning to `CC(C(=O)NCc1ccc(C(F)(F)F)nc1-c1ccc(F)c(Cl)c1)c1ccc(CNS(C)(=O)=O)c(F)c1` (centres unmarked) [Example 16, N-((2-(3-chloro-4-fluorophenyl)-6-(trifluoromethyl)pyridin-3-yl)methyl)-2-(3-fluoro-4-(methylsulfonamidomethyl)phenyl)propanamide], the Ki was found to be 5 nM. For `COCc1cccc(-c2nc(C(F)(F)F)ccc2CNC(=O)C(C)c2ccc(CNS(C)(=O)=O)c(F)c2)c1` (centres unmarked) [Example 49, 2-(3-fluoro-4-(methylsulfonamidomethyl)phenyl)-N-((2-(3-(methoxymethyl)phenyl)-6-(trifluoromethyl)pyridin-3-yl)methyl)propanamide], the Ki is 28 nM. On to `CC(C)c1cccc(-c2nc(C(F)(F)F)ccc2CNC(=O)C(C)c2ccc(CNS(C)(=O)=O)c(F)c2)c1` (centres unmarked) [Example 50, 2-(3-fluoro-4-(methylsulfonamidomethyl)phenyl)-N-((2-(3-isopropylphenyl)-6-(trifluoromethyl)pyridin-3-yl)methyl)propanamide], for which the Ki stood at 2 nM.

On to `Cc1ccc(F)c(-c2nc(C(F)(F)F)ccc2CNC(=O)C(C)c2ccc(CNS(C)(=O)=O)c(F)c2)c1` (centres unmarked) [Example 37, 2-(3-fluoro-4-(methylsulfonamidomethyl)phenyl)-N-((2-(2-fluoro-5-methylphenyl)-6-(trifluoromethyl)pyridin-3-yl)methyl)propanamide], for which the Ki was 16 nM. For `CCS(=O)(=O)NCc1ccc(NC(=O)NCc2ccc(C(F)(F)F)nc2-c2cccc(C)c2)cc1` [Example 82, N-(4-(3-((2-m-tolyl-6-(trifluoromethyl)pyridin-3-yl)methyl)ureido)benzyl)ethanesulfonamide], the Ki turned out to be 23 nM.

Consider `CC(C(=O)NCc1ccc(C(F)(F)F)nc1-c1ccccc1)c1ccc(CNS(C)(=O)=O)c(F)c1` (centres unmarked) [Example 5, 2-(3-fluoro-4-(methylsulfonamidomethyl)phenyl)-N-((2-phenyl-6-(trifluoromethyl)pyridin-3-yl)methyl)propanamide], for which the Ki came out at 31 nM. Turning to `C[C@H](C(=O)NCc1ccc(C(F)(F)F)nc1-c1ccc(F)c(Cl)c1)c1ccc(CNS(C)(=O)=O)c(F)c1` [Example 17, (S)—N-((2-(3-chloro-4-fluorophenyl)-6-(trifluoromethyl)pyridin-3-yl)methyl)-2-(3-fluoro-4-(methylsulfonamidomethyl)phenyl)propanamide], the Ki was 4 nM. In the case of `CC(C(=O)NCc1ccc(C(F)(F)F)nc1-c1cccc(Cl)c1)c1ccc(CNS(C)(=O)=O)c(F)c1` (centres unmarked) [Example 15, N-((2-(3-chlorophenyl)-6-(trifluoromethyl)pyridin-3-yl)methyl)-2-(3-fluoro-4-(methylsulfonamidomethyl)phenyl)propanamide], the Ki came to 10 nM. With `Cc1cc(C)cc(-c2nc(C(F)(F)F)ccc2CNC(=O)C(C)c2ccc(CNS(C)(=O)=O)c(F)c2)c1` (centres unmarked) [Example 32, N-((2-(3,5-dimethylphenyl)-6-(trifluoromethyl)pyridin-3-yl)methyl)-2-(3-fluoro-4-(methylsulfonamidomethyl)phenyl)propanamide], the Ki is 22 nM. For `Cc1ccc(-c2nc(C(F)(F)F)ccc2CNC(=O)C(C)c2ccc(CNS(C)(=O)=O)c(F)c2)cc1F` (centres unmarked) [Example 13, 2-(3-fluoro-4-(methylsulfonamidomethyl)phenyl)-N-((2-(3-fluoro-4-methylphenyl)-6-(trifluoromethyl)pyridin-3-yl)methyl)propanamide], the Ki was 26 nM. On to `CC(C(=O)NCc1ccc(C(F)(F)F)nc1-c1cccc(F)c1F)c1ccc(CNS(C)(=O)=O)c(F)c1` (centres unmarked) [Example 9, N-((2-(2,3-difluorophenyl)-6-(trifluoromethyl)pyridin-3-yl)methyl)-2-(3-fluoro-4-(methylsulfonamidomethyl)phenyl)propanamide], for which the Ki was 47 nM. Turning to `Cc1cccc(-c2nc(C(F)(F)F)ccc2CNC(=O)[C@@H](C)c2ccc(CNS(C)(=O)=O)c(F)c2)c1` [Example 25, (S)-2-(3-fluoro-4-(methylsulfonamidomethyl)phenyl)-N-((2-m-tolyl-6-(trifluoromethyl)pyridin-3-yl)methyl)propanamide], the Ki was 15 nM. On to `Cc1cccc(-c2nc(C(F)(F)F)ccc2CNC(=O)C(C)c2ccc(CNS(C)(=O)=O)c(F)c2)c1` (centres unmarked) [Example 24, 2-(3-fluoro-4-(methylsulfonamidomethyl)phenyl)-N-((2-m-tolyl-6-(trifluoromethyl)pyridin-3-yl)methyl)propanamide], for which the Ki is 6 nM. Same read-out and setting: the result for `CC(C(=O)NCc1ccc(C(F)(F)F)nc1-c1cccc(F)c1)c1ccc(CNS(C)(=O)=O)c(F)c1` (centres unmarked) [Example 7, 2-(3-fluoro-4-(methylsulfonamidomethyl)phenyl)-N-((2-(3-fluorophenyl)-6-(trifluoromethyl)pyridin-3-yl)methyl)propanamide] reads 61 nM; that for `COc1cccc(-c2nc(C(F)(F)F)ccc2CNC(=O)C(C)c2ccc(CNS(C)(=O)=O)c(F)c2)c1` (centres unmarked) [Example 61, 2-(3-fluoro-4-(methylsulfonamidomethyl)phenyl)-N-((2-(3-methoxyphenyl)-6-(trifluoromethyl)pyridin-3-yl)methyl)propanamide], 53 nM.

Still in this test, the particulars now being: inhibition at 1 μM, read-out: (f) inhibition (human being), Cap, @1 μM.
Consider `Cc1ccccc1-c1nc(C(F)(F)F)ccc1CNC(=O)C(C)c1ccc(CNS(C)(=O)=O)c(F)c1` (centres unmarked) [Example 19, 2-(3-fluoro-4-(methylsulfonamidomethyl)phenyl)-N-((2-o-tolyl-6-(trifluoromethyl)pyridin-3-yl)methyl)propanamide], for which the inhibition at 1 µM was found to be 18%. With `COc1ccc(C)cc1-c1nc(C(F)(F)F)ccc1CNC(=O)C(C)c1ccc(CNS(C)(=O)=O)c(F)c1` (centres unmarked) [Example 45, 2-(3-fluoro-4-(methylsulfonamidomethyl)phenyl)-N-((2-(2-methoxy-5-methylphenyl)-6-(trifluoromethyl)pyridin-3-yl)methyl)propanamide], the inhibition at 1 µM stood at 15%.

Still in this test, the particulars now being: inhibition at 5 μM, read-out: (f) inhibition (human being), Cap, @5 μM.
Turning to `Cc1cccc(-c2nc(C(F)(F)F)ccc2CNC(=O)[C@H](C)c2ccc(CNS(C)(=O)=O)c(F)c2)c1` [Example 26, (R)-2-(3-fluoro-4-(methylsulfonamidomethyl)phenyl)-N-((2-m-tolyl-6-(trifluoromethyl)pyridin-3-yl)methyl)propanamide], the inhibition at 5 µM worked out at 33%.
